Results on twelve compounds are retold here after publication PMC6009985, “Structure–activity relationship investigation of benzamide and picolinamide derivatives containing dimethylamine side chain as acetylcholinesterase inhibitors” (Journal of Enzyme Inhibition and Medicinal Chemistry, 2017).

What is called IC50 is the point on the concentration scale where inhibition reaches its midpoint. A higher IC50 goes with a need for much substance. In general, logP refers to the decadic logarithm of the partition coefficient of the neutral form, usually between octanol and water. Low readings indicate a more hydrophilic compound, high ones a more lipophilic compound. In general, Ki refers to a measure of affinity in units of concentration, obtained from inhibition or displacement.

The target of data set [1] is T1, AChE (Homo sapiens, UniProt P22303). As to the kind of experiment: biochemical. To be noted: for IC50: Ellman method, 30 °C, 25 min, pH 8.0, mean ± SD; for Selectivity for AChE, IC50 (BChE)/IC50 (AChE): ratio IC50 (BChE)/IC50 (AChE). The protocol:
(§1) AChE/BChE activity assays were carried out by Ellman method with slight modification. Each compound was dissolved in Tween 80 and diluted with water to various concentrations immediately before use. The assay solution which contained 40 μL AChE/BChE, 100 μL acetylthiocholine iodide/S-butyrylthiocholine iodide, 2.76 ml Na2HPO4/NaH2PO4 buffer (pH 8.0, 0.1 M), and 100 μL tested compound solution with different concentrations were incubated at 30 °C for 25 min. Then, the reaction was terminated with 100 μL 20% sodium dodecylsulphate (SDS), then 100 μL 10 mM […] (DTNB) as chromogenic agent was added into the mixture. […] The IC50 values were calculated by Bliss method and expressed as Mean ± SD of the replicates.
Background: DTNB colorimetry detects thiols as they appear.

The target in another data set is BChE (Homo sapiens, UniProt P06276). As to the kind of experiment: biochemical. To be noted: Ellman method, 30 °C, 25 min, pH 8.0; mean ± SD. The protocol: as §1
Data set [2] is described as follows: Octanol/buffer partition coefficient by shake flask method. The class given is physicochemical. To be noted: octanol/buffer (PBS) pH 7.4, shake-flask, 37 °C, HPLC; for logP: octanol/phosphate buffer solution (PBS). The method, then:
The aqueous phase was replaced by phosphate buffer solution (PBS, pH = 7.4). The assay mixture containing tested compounds was shaken at 37 °C over night and then centrifuged at 2000 rpm for 20 min, followed by the analysis with HPLC. […] Experiments were conducted in triplicate and log p values were calculated.

Data set [3] has as its target T1, AChE. As to the kind of experiment: Kinetic study of AChE inhibition (Lineweaver-Burk). The data set is classed as biochemical. The protocol:
Kinetic characterisation of AChE/BChE was performed by a modified method previous reported. Compound 7a was pre-incubated with the enzyme at 30 °C, then 100 µL acetylthiocholine iodide including five concentrations was added into the assay mixture and kinetic characterisation was conducted spectrometrically at 412 nm. Additionally, the parallel control experiment was made without compound 7a in the mixture.
Compound 7a was selected for kinetic studies. The linear Lineweaver–Burk equation of the Michaelis–Menten was applied to evaluate the inhibition profile. The analysis of the steady-state inhibition data of compound 7a was shown in Supplement data: Table 2.

Structures are written as SMILES.

T1 sequence (P22303 32-614): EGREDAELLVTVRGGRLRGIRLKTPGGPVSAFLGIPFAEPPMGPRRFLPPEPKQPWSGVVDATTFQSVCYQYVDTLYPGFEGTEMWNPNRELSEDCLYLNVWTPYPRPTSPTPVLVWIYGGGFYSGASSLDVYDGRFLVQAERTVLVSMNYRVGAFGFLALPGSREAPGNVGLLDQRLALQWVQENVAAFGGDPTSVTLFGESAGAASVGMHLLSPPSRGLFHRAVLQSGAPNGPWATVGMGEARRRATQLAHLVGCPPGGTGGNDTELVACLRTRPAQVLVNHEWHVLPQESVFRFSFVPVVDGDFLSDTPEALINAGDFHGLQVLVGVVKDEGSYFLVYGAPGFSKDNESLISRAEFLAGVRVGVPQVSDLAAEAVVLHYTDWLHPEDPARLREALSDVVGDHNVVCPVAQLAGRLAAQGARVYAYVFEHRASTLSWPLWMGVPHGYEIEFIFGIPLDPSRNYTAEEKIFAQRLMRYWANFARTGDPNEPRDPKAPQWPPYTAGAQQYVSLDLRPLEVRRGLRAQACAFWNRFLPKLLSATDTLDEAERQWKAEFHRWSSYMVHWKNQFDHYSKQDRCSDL
Sequence of BChE (P06276 29-602): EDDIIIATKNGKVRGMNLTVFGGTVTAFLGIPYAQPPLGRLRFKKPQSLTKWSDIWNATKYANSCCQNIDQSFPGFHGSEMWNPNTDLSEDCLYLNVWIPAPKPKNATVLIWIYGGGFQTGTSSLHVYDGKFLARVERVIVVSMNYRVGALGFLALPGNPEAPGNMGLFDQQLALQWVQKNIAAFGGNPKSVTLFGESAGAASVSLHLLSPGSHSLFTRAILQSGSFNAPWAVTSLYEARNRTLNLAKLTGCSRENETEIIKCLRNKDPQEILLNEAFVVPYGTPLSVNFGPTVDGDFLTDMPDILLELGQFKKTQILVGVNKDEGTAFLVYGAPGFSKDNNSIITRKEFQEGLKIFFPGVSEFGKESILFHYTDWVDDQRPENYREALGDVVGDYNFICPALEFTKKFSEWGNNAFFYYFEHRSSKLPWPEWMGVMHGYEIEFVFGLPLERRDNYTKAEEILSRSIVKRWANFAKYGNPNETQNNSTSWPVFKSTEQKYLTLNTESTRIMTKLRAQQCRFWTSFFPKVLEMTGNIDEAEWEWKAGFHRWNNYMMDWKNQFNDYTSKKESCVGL

For `CN(C)CCOc1ccc(NC(=O)c2ccccc2)cc1` [Compound 4a], at AChE [1], the IC50 was 18.2 ± 1.16 µM and the “Selectivity for AChE, IC50 (BChE)/IC50 (AChE)” value (“Selectivity for AChE, IC50” for short) is listed as 7.84. The half-maximal inhibitory concentration (IC50) at BChE came to 143 ± 5.56 µM. In data set [2], the Log p came out at 1.12.

In the case of `CN(C)CCOc1cccc(NC(=O)c2ccccc2)c1` [Compound 4b], on AChE [1], the concentration for half-maximal inhibition (IC50) came out at 75.8 ± 4.13 µM and the “Selectivity for AChE, IC50” value was determined as 0.276. The same compound came in with a concentration for half-maximal inhibition (IC50) against BChE of 20.9 ± 1.61 µM. This compound also displayed a logP in data set [2] of 1.18.

In the case of `CN(C)CCOc1ccccc1NC(=O)c1ccccc1` [Compound 4c], the IC50 was more than 500 µM at AChE [1] and 18 ± 1 µM against BChE. For the same compound, on AChE [1], the “Selectivity for AChE, IC50” value is less than 0.0359. Further, in data set [2], the logP was determined as 1.23.

For the compound `CN(C)CCOc1ccc(NC(=O)c2ccncc2)cc1` [Compound 7a], the half-maximal inhibitory concentration (IC50) was found to be 2.49 ± 0.19 µM on AChE [1] and 247 ± 7.54 µM on BChE. Further, the “Selectivity for AChE, IC50” value on AChE [1] came out at 99.4. In data set [2], this compound registered a logP of 1.26. The Vmax on AChE [3] (AChE, 0.85 µM compound 7a) was 0.017 ΔAmin-1; on AChE [3] (AChE, 1.70 µM compound 7a), 0.014 ΔAmin-1; on AChE [3] (AChE, 3.41 µM compound 7a), 0.012 ΔAmin-1. On AChE [3] (AChE, Lineweaver-Burk analysis), the “non-competitive constant (Ki')” value was 3.28 µM. Further, the Ki on AChE [3] (AChE, Lineweaver-Burk analysis, read-out: competitive inhibition constant (Ki)) was 4.69 µM. Further, the “type of inhibition against AChE” value at AChE [3] (Lineweaver-Burk analysis) is on record as “mixed-type inhibition”.

Consider `CN(C)CCOc1cccc(NC(=O)c2ccncc2)c1` [Compound 7b], for which the IC50 against AChE [1] amounted to 38.4 ± 2.19 µM; at BChE, 48.6 ± 2.23 µM. For the same compound, the “Selectivity for AChE, IC50” value on AChE [1] was 1.26. This compound also came in with a logP in data set [2] of 1.31.

Regarding `CN(C)CCOc1ccccc1NC(=O)c1ccncc1` [Compound 7c], the IC50 against AChE [1] was more than 500 µM; against BChE it was 44.6 ± 1.16 µM. The “Selectivity for AChE, IC50” value on AChE [1] is listed as less than 0.0892. Moreover, the log partition coefficient (logP) in data set [2] worked out at 1.37.

As to `CN(C)CCOc1ccc(NC(=O)c2cccnc2)cc1` [Compound 7d], at AChE [1], 5.76 ± 0.41 µM corresponded to half-maximal inhibition (IC50) and the “Selectivity for AChE, IC50” value is listed as 42.80. Moreover, on BChE, the IC50 was found to be 246.5 ± 1.85 µM. The compound also returned a logP in data set [2] of 1.33.

Regarding `CN(C)CCOc1cccc(NC(=O)c2cccnc2)c1` [Compound 7e], the IC50 came out at 13.2 ± 1.73 µM on AChE [1] and 22.1 ± 1.01 µM on BChE. Also, the “Selectivity for AChE, IC50” value at AChE [1] came to 1.67. In data set [2], this compound gave a logP of 1.37.

In the case of `CN(C)CCOc1ccccc1NC(=O)c1cccnc1` [Compound 7f], on AChE [1], the IC50 is 75.8 ± 0.84 µM and the “Selectivity for AChE, IC50” value is listed as 0.441. The same compound registered an IC50 on BChE of 33.4 ± 1.37 µM. The same compound came in with a lipophilicity (logP) in data set [2] of 1.42.

As for `CN(C)CCOc1ccc(NC(=O)c2ccccn2)cc1` [Compound 7g], on AChE [1], the IC50 was found to be 4.68 ± 0.3 µM and the “Selectivity for AChE, IC50” value was determined as 24.4. The compound also yielded an IC50 against BChE of 114 ± 7.73 µM. For the same compound, in data set [2], the log partition coefficient (logP) was 1.14.

For `CN(C)CCOc1cccc(NC(=O)c2ccccn2)c1` [Compound 7h], at AChE [1], the IC50 was found to be 73 ± 3.03 µM and the “Selectivity for AChE, IC50” value amounted to 0.492. Moreover, the IC50 at BChE is 35.9 ± 0.94 µM. This compound returned a lipophilicity (logP) in data set [2] of 1.37.

On to `CN(C)CCOc1ccccc1NC(=O)c1ccccn1` [Compound 7i], for which the IC50 against AChE [1] is more than 500 µM; at BChE, 27.4 ± 2.31 µM. Moreover, the “Selectivity for AChE, IC50” value on AChE [1] is on record as less than 0.0549. In addition, the logP in data set [2] was 1.18.
